Assay results from ChEMBL document CHEMBL5247654 (J Med Chem, 2023).
Activity calls are given as the source filed them. The rule behind the calls is not given here.

Columns and labels:
[1] = target: T1, Dual specificity tyrosine-phosphorylation-regulated kinase 1A (Homo sapiens, UniProt Q13627); assay: Binding affinity to human C-terminal his tagged DYRK1A (26 to 490 residues) expressed in Escherichia coli at 100 uM by radiometric analysis
[2] = target: T1, Dual specificity tyrosine-phosphorylation-regulated kinase 1A; assay: Inhibition of human C-terminal his tagged DYRK1A (26 to 490 residues) expressed in Escherichia coli using DYRKtide (RRRFRPASPLRGPPK) as peptide substrate incubated for 1 hr in presence of ATP by cook activity assay
[3] = target: T1, Dual specificity tyrosine-phosphorylation-regulated kinase 1A; assay: Inhibition of human C-terminal his tagged DYRK1A (26 to 490 residues) transfected in HEK293T cells assessed as inhibition of cyclin D1 phosphorylation at 10 uM incubated for 3 hrs by Western blot analysis; type: cell-based
[4] = target: T2, Glycogen synthase kinase-3 beta (Homo sapiens, UniProt P49841); assay: Inhibition of human C-terminal his tagged GSK3beta (26 to 383 residues) transfected in HEK293T cells assessed as inhibition of cyclin D1 phosphorylation at 10 uM incubated for 3 hrs by Western blot analysis; type: cell-based
Target sequence in this assay (P49841 whole entry, looked up, the tested form may be a part): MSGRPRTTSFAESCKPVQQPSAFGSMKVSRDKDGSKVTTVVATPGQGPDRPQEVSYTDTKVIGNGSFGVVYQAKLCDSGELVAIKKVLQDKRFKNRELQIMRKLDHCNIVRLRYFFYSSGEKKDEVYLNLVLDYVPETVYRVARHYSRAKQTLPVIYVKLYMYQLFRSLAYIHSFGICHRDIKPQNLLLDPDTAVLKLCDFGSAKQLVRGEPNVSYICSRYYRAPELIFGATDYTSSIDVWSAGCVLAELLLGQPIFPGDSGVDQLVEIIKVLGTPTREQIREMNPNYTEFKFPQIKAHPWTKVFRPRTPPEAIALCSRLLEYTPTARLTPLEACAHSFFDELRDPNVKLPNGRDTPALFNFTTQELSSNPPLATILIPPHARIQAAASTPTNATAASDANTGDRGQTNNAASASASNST

[5] = target: T2, Glycogen synthase kinase-3 beta; assay: Inhibition human C-terminal his tagged m-Cherry GSK3beta (26 to 383 residues) in HEK293T cells assessed as reversal of ionomycin stimulated NFAT cellular localization at 5 uM incubated for 3 hrs followed by ionomycin stimulation for 1 hr by Hoechst 33258 staining based fluorescence microscopic analysis; type: cell-based; conditions: time 4.0 hrs
Target sequence in this assay (P49841 whole entry, looked up, the tested form may be a part): as above

[6] = target: T2, Glycogen synthase kinase-3 beta; conditions: dose 500.0 nM
Target sequence in this assay (P49841 whole entry, looked up, the tested form may be a part): as above

[7] = target: T2, Glycogen synthase kinase-3 beta; assay: Inhibition of human C-terminal his tagged GSK3beta (26 to 383 residues) expressed in Escherichia coli using GYSI(YRRAAVPPSPSLSRHSSPHQ(pS)EDEEE) as peptide substrate incubated for 1 hr in presence of ATP by cook activity assay
Target sequence in this assay (P49841 whole entry, the tested form may be a part): as the sequence (P49841 whole entry, looked up, the tested form may be a part) above

[8] = target: T2, Glycogen synthase kinase-3 beta; assay: Stabilization of human C-terminal his tagged GSK3beta (26 to 383 residues) expressed in Escherichia coli assessed as change in melting temperature at 10 uM by SYPRO orange dye based thermal shift assay
Target sequence in this assay (P49841 whole entry, looked up, the tested form may be a part): as the sequence (P49841 whole entry, looked up, the tested form may be a part) above

| Activity [1] | IC50 [2] | inhibition [3] | inhibition [4] | inhibition [5] | inhibition [6] [%] | Structure (SMILES) | IC50 [7] | Tm [8] |
| --- | --- | --- | --- | --- | --- | --- | --- | --- |
| inactive | Not Active | Active | Active | Active | – | O=C1Cc2c([nH]c3ccc(Br)cc23)-c2ncccc2N1 [AZAKENPAULLONE] | – | – |
| – | – | 100% | 100% | Active | 50 | O=C(O)c1ccc2c(c1)nc(Nc1cccc(Cl)c1)c1ccncc12 | – | – |

| Structure (SMILES) | Activity [1] | IC50 [2] | inhibition [3] | inhibition [4] | inhibition [5] | inhibition [6] [%] | IC50 [7] | Tm [8] |
| --- | --- | --- | --- | --- | --- | --- | --- | --- |
| COc1ccc2c(c1)[nH]c1c(C)nccc12 [HARMINE] | – | – | Active | Active | – | – | Not Active | inactive |
